Tests used:
[1] = test system: CH58TF infected primary CD4+ T-cells; assay: Recognition of HIV-1 infected cells by 17b (flow cytometry cell-surface staining); format: cell-based; conditions: for fold induction at 50 µM: Human immunodeficiency virus 1, T-cell, read-out: Fold Over DMSO (17b, n = 1)
Protocol: (§1) Cell-surface staining of primary CD4+ T cells from healthy HIV uninfected individuals or CEM-NKr cells is performed, as described in Prevost, “Influence of the Envelope gp120 Phe 43 Cavity on HIV-1 Sensitivity to Antibody-Dependent Cell-Mediated Cytotoxicity Responses,” 2017, J. Virol 91; Richard, “CD4 mimetics sensitize HIV-1-infected cells to ADCC,” 2015, Proc. Natl. Acad. Sci. USA, 112:E2687-2694; Richard, “Small CD4 Mimetics Prevent HIV-1 Uninfected Bystander CD4+ T Cell Killing Mediated by Antibody-dependent Cell-mediated Cytotoxicity,” 2016, EBioMedicine 3:122-134; Veillette, “The HIV-1 gp120 CD4-Bound Conformation Is Preferentially Targeted by Antibody-Dependent Cellular Cytotoxicity-Mediating Antibodies in Sera from HIV-1-Infected Individuals,” 2015, J. Virol., 89:545-551; Veillette, “Interaction with cellular CD4 exposes HIV-1 envelope epitopes targeted by antibody-dependent cell-mediated cytotoxicity,” 2014, J. Virol., 88:2633-2644; Richard, “Uninfected Bystander Cells Impact the Measurement of HIV-Specific Antibody-Dependent Cellular Cytotoxicity Responses,” 2018, MBio. 9(2): e00358-18; Richard, “BST-2 Expression Modulates Small CD4-Mimetic Sensitization of HIV-1-Infected Cells to Antibody-Dependent Cellular Cytotoxicity,” 2017, J. Virol. 91(11):e00219-17. Binding of HIV-1 infected cells by HIV+ sera (1:1000 dilution) or anti-Env Abs (such as 17b) is performed […] in vitro infection at 37° C. in presence of different concentrations of the MCG analogs or with equivalent volume of vehicle (DMSO). Cells infected with HIV-1 primary isolates are stained intracellularly for HIV-1 p24 using the Cytofix/Cytoperm Fixation/Permeabilization Kit (BD Biosciences, Mississauga, ON, Canada) and then fluorescent anti-p24 mAb (PE-anti-p24, clone KC57; Beckman Coulter/Immunotech, Hialeah, FL) (1:100 final concentration). The percentage of infected cells (p24^+ or GFP+ cells) is determined by gating the living cell population based on the viability dye staining. Samples are analyzed on an LSRII cytometer (BD Biosciences, Mississauga, ON, Canada) and data analysis is performed using FlowJo vX0.7 (Tree Star, Ashland, OR, USA).
(§2) Briefly, Primary CD4 T cells isolated from PBMC were infected with HIV-1CH58TF for 48 hours. For cell surface staining, 5 μg/ml 17b (FIG. 15A) or 1:1000 diluted HIV+ plasma (n=15) (FIG. 15B) were used in the presence of the different MCG analogs (50 μM), (+)-BNM-III-170 or with an equivalent volume of vehicle (DMSO). An Alexa Fluor 647-conjugated anti-human IgG secondary Ab was then used for fluorescent labeling. For ADCC (FIG. 15C), infected cells were used as target cells in a FACS-based ADCC assay that measures the killing of infected (p24+ cells). See, Madani, 2016, J. Virol., 90:5031-5046. The assay determines susceptibility to ADCC mediated by a 1/1,000 dilution of plasma from 15 HIV-1-infected individuals in the presence of the different MCG analogs (50 μM), (+)-BNM-III-170 (50 μM) or with an equivalent volume of vehicle (DMSO). Correlation between cell-surface staining with HIV+ plasma and ADCC was calculated using the Spearman rank correlation (FIG. 15D).

[2] = test system: CH58TF infected primary CD4+ T-cells; assay: HIV+ patient sera/plasma recognition of CH58TF infected primary CD4+ T-cells (flow cytometry cell-surface staining); format: cell-based, HIV-1; conditions: for fold induction at 50 µM: Human immunodeficiency virus 1, T-cell, read-out: Fold Over DMSO (patient sera, n = 3)
Protocol: as §1
HIV+ Patient Sera (n=3) Recognition of CH58TF Infected Primary CD4+ T-Cells
Staining with patient sera and 50 μM of compounds given as a fold change over DMSO (vehicle).
as §2

[3] = test system: HIV-1JR-FL EnvΔCT expressed at the surface of HOS cells; assay: Cell-based ELISA (CBE), 17b readout; conditions: MCG analogs 50 μM; BNM-III-170 5 μM; 2G12 and DMSO normalized
Protocol: Detection of trimeric HIV-1 Env at the surface of HOS cells was performed by cell-based ELISA, as described in Desormeaux, “The highly conserved layer-3 component of the HIV-1 gp120 inner domain is critical for CD4-required conformational transitions,” J. Virol. 87:2549-2562; Alsahafi, “Effects of the I559P gp41 change on the conformation and function of the human immunodeficiency virus (HIV-1) membrane envelope glycoprotein trimer,” 2015, PLoS One 10:e0122111; and Veillette, “Conformational evaluation of HIV-1 trimeric envelope glycoproteins using a cell-based ELISA assay,” 2014, J. Vis. Exp., 91:51995. To enhance cell-surface expression of HIV-1 EnvRF a stop codon was introduced to replace the codon for Gly 711, truncating the cytoplasmic tail (ACT). Briefly, HOS cells were seeded in T-75 flasks (3×10^6 cells per flask) and transfected the next day with 22.5 μg of Env-expressing plasmids (wild-type and mutants S375W, S375T, H66A, A582T/L587A, etc) using the standard polyethylenimine (PEI, Polyscience Inc, PA, USA) transfection method. Twenty-four hours after transfection, cells were plated in 384-wells plates (2×10^4 cells per well). One day later, cells were washed twice with blocking buffer (10 mg/mL non-fat dry milk, 1.8 mM CaCl2), 1 mM MgCl2, 25 mM Tris, pH 7.5 and 140 mM NaCl) and then incubated for 30 minutes at room temperature with different concentrations of MCG analogs or equivalent volume of vehicle (DMSO). Cells were then incubated for an additional 1 h at room temperature with anti-HIV-1 Env monoclonal antibodies recognizing CD4-induced gp120 epitopes (17b, A32), CD4-binding site gp120 epitopes (VRC03, VRC01, F105, and b12), gp120 V3 glycans (19b, PGT126, PGT122, and 10.1074), gp120 outer domain (2G12), and gp120-gp41 interface (PGT151 and VRC34) epitopes. All ligands were diluted in blocking buffer. A horseradish peroxidase-conjugated antibody specific for the Fc region of human or mouse IgG (Pierce) was then incubated with the samples for 45 minutes at room temperature. For all conditions, cells were washed 5 times with blocking buffer and 5 times with washing buffer (1.8 mM CaCl2), 1 mM MgCl2, 25 mM Tris, pH 7.5 and 140 mM NaCl). HRP enzyme activity was determined after the addition of 20 μl per well of a 1:1 mix of Western Lightning oxidizing and luminol reagents (Perkin Elmer Life Sciences). Light emission was measured with an LB 941 TriStar luminometer (Berthold Technologies) and analysis with Graph Pad software.
The data of Table 2 is given as the fold over BNM-III-170 (5 μM) of Cell-Based ELISA with MCG Analogs (50 μM)—17b readout, 2G12 and DMSO normalized.
To identify molecules able to expose vulnerable Env epitopes, a cell-based ELISA (CBE) assay was adapted, capable of measuring conformational changes of membrane-bound trimeric Env as described in Veillette, 2014, J. Vis. Exp. doi:10.3791/51995:51995; Haim, 2011, PLoS Pathog 7:e1002101, into a high-throughput screening (HTS) platform (FIG. 10A). Briefly, the cytoplasmic-tail deleted HIV-1JR-FL Tier-2/3 Env was expressed on the surface of HOS cells in a 384-well-plate format. The cytoplasmic tail of Env was deleted to enhance Env expression at the cell surface and therefore enhance the sensitivity of the CBE assay. See, Veilette and Haim, 2009, PLoS Pathog 5:e100036. Small molecules or, as a positive control, soluble (sCD4) were added to expose the HIV-1JR-FL EnvΔCT epitope that can be recognized by the CD4i antibody 17b. See, Wyatt, 1995, J. Virol. 69:5723-5733; Rizzuto, 1998, Science 280:1949-1953.
17b binding was detected by a horseradish peroxidase-conjugated (HRP) second antibody, and HRP enzyme activity was measured by Western Lightning oxidizing and luminal reagents. 17b binding in the presence of sCD4 was set as the control (FIG. 10B, blue dots), small molecules that enhanced 17b binding above 25% of the one induced by sCD4 were retested in quadruplicate and only one molecule (UM0059920) was deemed a true positive (FIG. 10B, red dots). […]

Solubility in PBS = format: physicochemical; conditions: Yes/NO

Row | SMILES | fold induction at 50 µM [1] | fold induction at 50 µM [2] | Fold over BNM-III-170 - 17b binding (±0.05) [3] [fold] | Solubility (in PBS) (Solubility in PBS) | Fold Over DMSO (17b, n = 1) ([1]; 50 μM of compounds, 17b staining) [fold] | Fold Over DMSO (patient sera, n = 3) ([2]; 50 μM of compounds, staining with HIV+ patient sera, CH58TF infected primary CD4+ T-cells) [fold]
1 | CS(=O)(=O)N1CCC[C@H](C(=O)Nc2ccc(C(F)(F)F)cc2)C1 [(S)-MCG-III-027-A04] | 1.07 | 1.4 | 0.17 | Yes |  | 
2 | CS(=O)(=O)N1CCC[C@H](C(=O)Nc2ccc(F)c(Cl)c2)C1 [(S)-MCG-III-085-A02] | 2.15 | 1.13 | 0.22 | Yes |  | 
3 | CS(=O)(=O)N1CCC[C@H](C(=O)Nc2ccc(Cl)c(Cl)c2)C1 [(S)-MCG-III-085-A03] | 3.34 | 1.46 | 0.19 | Yes |  | 
4 | CS(=O)(=O)N1CCC[C@H](C(=O)Nc2ccc(F)c(F)c2)C1 [(S)-MCG-III-085-A04] | 3 | 1.31 | 0.10 | Yes |  | 
5 | CS(=O)(=O)N1CCC[C@H](C(=O)Nc2ccc(Cl)c(Br)c2)C1 [(S)-MCG-III-085-A05] | 2.15 | 1.11 | 0.16 | Yes |  | 
6 | CS(=O)(=O)N1CCC[C@H](C(=O)Nc2ccc(Br)c(Cl)c2)C1 [(S)-MCG-III-085-A06] | 3.3 | 1.61 | 0.14 | Yes |  | 
7 | CCS(=O)(=O)N1CCC[C@H](C(=O)Nc2ccc(F)c(Cl)c2)C1 [(S)-MCG-III-085-C02] | 2.15 | 1.19 | 0.20 | Yes |  | 
8 | CCS(=O)(=O)N1CCC[C@H](C(=O)Nc2ccc(Cl)c(Cl)c2)C1 [(S)-MCG-III-085-C03] | 3.83 | 1.65 | 0.25 | Yes |  | 
9 | O=C(Nc1ccc(Cl)c(F)c1)[C@H]1CCCN(S(=O)(=O)C(F)(F)F)C1 [(S)-MCG-III-132] |  | 1.58 | 0.27 | Yes |  | 
10 | CS(=O)(=O)N1CCC(C(=O)Nc2ccc(Cl)c(F)c2)C1 (centres unmarked) [MCG-III-157-A01] |  | 1.85 | 0.36 | Yes |  | 
11 | CCS(=O)(=O)N1CCC(C(=O)Nc2ccc(Cl)c(F)c2)C1 (centres unmarked) [MCG-III-157-A02] |  | 1.64 | 0.27 | Yes |  | 
12 | Cn1cnc(S(=O)(=O)N2CCC(C(=O)Nc3ccc(Cl)c(F)c3)C2)c1 (centres unmarked) [MCG-III-157-A04] |  | 1.28 | 0.34 | Yes |  | 
13 | CS(=O)(=O)N1CCCC(C(=O)Nc2ccc(Cl)c(F)c2)C1 (centres unmarked) [MCG-III-157-B01] |  | 1.48 | 0.42 | Yes |  | 
14 | CCS(=O)(=O)N1CCCC(NC(=O)c2ccc(Cl)c(F)c2)C1 (centres unmarked) [MCG-III-157-C02] |  | 1.05 | 0.07 | Yes |  | 
15 | Cn1cnc(S(=O)(=O)N2CCCC(NC(=O)c3ccc(Cl)c(F)c3)C2)c1 (centres unmarked) [MCG-III-157-C04] |  | 0.897 | 0.04 | Yes |  | 
16 | O=C(Nc1ccc(Cl)c(F)c1)C1CNCCO1 (centres unmarked) [MCG-III-196] |  |  |  | Yes | 2.595 | 1.499
17 | CCN1CC(C(=O)Nc2ccc(Cl)c(F)c2)Cc2ccccc21 (centres unmarked) [MCG-III-201] | 1.39 | 0.989 |  | Yes |  | 
18 | O=C(Nc1ccc(Cl)c(F)c1)C1CNc2ccccc2C1 (centres unmarked) [MCG-III-209] | 3.23 | 1.82 |  | Yes |  | 
19 | CCS(=O)(=O)N1CC(C(=O)Nc2ccc(Cl)c(F)c2)Cc2ccccc21 (centres unmarked) [MCG-III-214-A02] | 5.16 | 3.25 |  | Yes** |  | 

From patent US12286401B2, “Small molecules that sensitize HIV-1 infected cells to antibody dependent cellular cytotoxicity” (THE TRUSTEES OF THE UNIVERSITY OF PENNSYLVANIA, priority 2018, dated 2025)
